We go through 19 compounds from US12448388B2, “PRMT5 inhibitors and uses thereof” (Gilead Sciences, Inc., priority 2023, dated 2025).

Assay [1] has as its system HCT116 MTAP-deleted cell lines. Briefly: Cell viability assay (CellTiter-Glo, 7 days), HCT116 MTAP-deleted. The class given is cell-based. The following applies: Homo sapiens, HCT-116; cell viability, HCT116 MTAP-deleted; class symbols; read-out: CC50. Put shortly: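 CC50 values come from 7-day CellTiter-Glo viability measurements on cells exposed to a dose range of PRMT5 inhibitors dispensed from DMSO stocks.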

For assay [2], the system named is Symmetric Di-methyl Arginine (SDMA) signal (PRMT5 inhibition) in HCT116 MTAP-deleted cells. Briefly: Symmetric di-methyl arginine image-based high content screen assay (SDMA assay), HCT116 MTAP-deleted. Format: cell-based. The following applies: for EC50 selectivity: HCT116 WT versus HCT116 MTAP-deleted; for EC50: Homo sapiens, HCT-116, HCT116 MTAP-deleted, class symbols. On the procedure:
Symmetric di-methyl arginine image-based high content screen assay (SDMA assay) was performed in HCT116 WT and HCT116 MTAP-deleted cell lines to measure Symmetric Di-methyl Arginine (SDMA) signal reduction after selective PRMT5 inhibition in the MTAP-deleted cells. Control compounds were analyzed in parallel each time for quality control.
Briefly, the same compound plates were generated as mentioned in the previous section of Cell viability assay on Day −1. On Day 0, 800 HCT WT or HCT116 MTAP-deleted cell were seeded in compound-containing 384 well plates (50 μl per well) in RPMI 1640 media supplemented with 10% heat inactivated fetal bovine serum, Glutamax and penicillin streptomycin using EL460 liquid dispenser 5 μl cassette (BioTek, part no. 7170011). After equilibrating the plate at room temperature, the cells were incubated for 3 days inside the sealed incubator set at 37° C. with 90% humidity and 5% C02.
On Day 3, the cells were fixed by adding 45 μl of 8% neutralized formalin solution to each well using EL460 liquid dispenser 5 μl cassette and the cells were incubated for 30 minutes at room temperature. The formalin solution was washed off with […] phosphate buffered saline (dPBS), the 0.1% Triton X-100 solution in dPBS was used to permeabilize the cells for 15 minutes at room temperature. The triton solution was aspirated, 50 μl of Odyssey Blocking buffer +0.05% Tween20 was added and the plate was incubated at room temperature for 30 minutes.
The blocking solution was removed, a 20 μl of SDMA antibody (Cell Signaling Technology, Cat no. 13222) diluted 1:500 in Odyssey Blocking buffer +0.05% Tween20 was added and the plate was incubated at 4° C. overnight. Next day, the primary SDME antibody solution was washed from each well three times with 0.05% Tween20 in dPBS (PBST).
A 30 μl of the secondary antibody, a Goat anti-Rabbit Alexa Fluor Plus 488 (Invitrogen, Cat no. PIA32731) was diluted 1:500 in Odyssey Blocking buffer +0.05% Tween20 and the plate was incubated for 1.5 hours in dark at room temperature. The secondary antibody solution was removed, 30 μl of 5 mg/ml DAPI solution diluted 1:2000 in dPBS was added and the plate was incubated for 30 minutes in dark at room temperature. The DAPI solution was aspirated and the wells were washed six times with dPBS.
The SDMA signal and DAPI signal per cell were counted using a Cellomics CX7 LZR instrument reading under 488 and 405 nm laser, respectively. The SDMA signal was quantified by mean average intensity per cell from Alexa Fluor Plus 488 after the cell was defined with DAPI. The EC50 values for each compound after 3 days of treatment were calculated using 4 parameter non-linear logistical curve fit.
For the SDMA assay i.e. EC50 shown in Table 3A: A: EC50≤1 nM, B: 1 nM<EC50≤5 nM, C: EC50>5 nM.

The structures appear in SMILES notation. A value given as a limit tells only on which side of the number the result lay.

As a reminder, the CC50 is the concentration giving 50% cytotoxicity. The term EC50 denotes the midpoint of the concentration-response curve. Low readings indicate greater potency, high ones weaker potency. Consider `Cc1ncn2c1c(N)nc1ccc(C(=O)N(Cc3ccc(C(F)(F)F)cc3F)N(C)C(=O)C3CC3)cc12` [Fa-4, 4-amino-N′-(cyclopropanecarbonyl)-N-(2-fluoro-4-(trifluoromethyl)benzyl)-N′,3-dimethylimidazo[1,5-a]quinoxaline-8-carbohydrazide], for which the 50% cytotoxic concentration (CC50) in assay [1] was < 100 nM. Further, in assay [2], the EC50 selectivity was 74 and the EC50 lay in the range of 1 to 5 nM.
For `CC(=O)N(C)N(Cc1ccc(-c2cnn(C(F)(F)F)c2)cc1F)C(=O)c1ccc2nc(N)c3c(C)ncn3c2c1` [Fa-5, N′-acetyl-4-amino-N-(2-fluoro-4-(1-(trifluoromethyl)-1H-pyrazol-4-yl)benzyl)-N′,3-dimethylimidazo[1,5-a]quinoxaline-8-carbohydrazide], in that order: < 100 nM, 101 and 1 to 5 nM.
Take `CC(=O)N(C)N(Cc1ccc(Cl)cc1C#N)C(=O)c1ccc2nc(N)c3c(C)ncn3c2c1` [Fa-6, N′-acetyl-4-amino-N-(4-chloro-2-cyanobenzyl)-N′,3-dimethylimidazo[1,5-a]quinoxaline-8-carbohydrazide]: in assay [1], the CC50 was < 100 nM. Besides, in assay [2], the EC50 selectivity is recorded as 129 and the EC50 was 1 to 5 nM.
Regarding `CC(=O)N(C)N(Cc1ccc(C(F)(F)F)cc1F)C(=O)c1ccc2nc(N)c3c(C)nc(C)n3c2c1` [Fa-7, N′-acetyl-4-amino-N-(2-fluoro-4-(trifluoromethyl)benzyl)-N′,1,3-trimethylimidazo[1,5-a]quinoxaline-8-carbohydrazide], in assay [1], the CC50 was in the range of 100 to 1000 nM. In assay [2], the EC50 selectivity is 159 and the EC50 was > 5 nM.
For the compound `Nc1nc2ccc(C(=O)N(Cc3ccc(C(F)(F)F)cn3)N3CCOCC3)cc2n2cncc12` [Fb-2, 4-amino-N-morpholino-N-((5-(trifluoromethyl)pyridin-2-yl)methyl)imidazo[1,5-a]quinoxaline-8-carboxamide], the 50% cytotoxic concentration (CC50) in assay [1] was < 100 nM. In assay [2], this compound yielded an EC50 selectivity of 48 and an EC50 of 1 to 5 nM.
For `CN(C(=O)C1CC1)N(Cc1ccc(C(F)(F)F)cc1F)C(=O)c1cc2c(cc1F)nc(N)c1cncn12` [Fb-3, 4-amino-N′-(cyclopropanecarbonyl)-7-fluoro-N-(2-fluoro-4-(trifluoromethyl)benzyl)-N′-methylimidazo[1,5-a]quinoxaline-8-carbohydrazide], in that order: < 100 nM, 32 and ≤ 1 nM.
On to `Cc1ncc2c(N)nc3ccc(C(=O)N(Cc4ccc(C(F)(F)F)cc4F)N(C)C(=O)C4CC4)cc3n12` [Fb-4, 4-amino-N′-(cyclopropanecarbonyl)-N-(2-fluoro-4-(trifluoromethyl)benzyl)-N′,1-dimethylimidazo[1,5-a]quinoxaline-8-carbohydrazide], for which, in assay [1], the CC50 is 100 to 1000 nM. In assay [2], this compound returned an EC50 selectivity of 249 and an EC50 of 1 to 5 nM.
Taken in the same sequence, the figures for `CC(=O)N(C)N(Cc1nc2cc(Cl)ccc2s1)C(=O)c1ccc2nc(N)c3cncn3c2c1` [Fb-5, N′-acetyl-4-amino-N-((5-chlorobenzo[d]thiazol-2-yl)methyl)-N′-methylimidazo[1,5-a]quinoxaline-8-carbohydrazide] were 100 to 1000 nM, 320 and > 5 nM.
As to `CC(=O)N(C)N(Cc1nc2cc(Cl)ccc2s1)C(=O)c1ccc2nc(N)c3cnc(C)n3c2c1` [Fb-6, N′-acetyl-4-amino-N-((5-chlorobenzo[d]thiazol-2-yl)methyl)-N′,1-dimethylimidazo[1,5-a]quinoxaline-8-carbohydrazide], in assay [1], the CC50 was in the range of 100 to 1000 nM. In addition, in assay [2], the EC50 selectivity came out at 390 and the EC50 was > 5 nM.
Turning to `CN(C(=O)c1cc2c(cc1F)nc(N)c1cncn12)[C@@H](c1ccc(C(F)(F)F)cc1F)C(F)F` [Fb-8, (S)-4-amino-N-(2,2-difluoro-1-(2-fluoro-4-(trifluoromethyl)phenyl)ethyl)-7-fluoro-N-methylimidazo[1,5-a]quinoxaline-8-carboxamide], in assay [1], the CC50 is < 100 nM. Also, in assay [2], the EC50 selectivity turned out to be 224 and the EC50 is ≤ 1 nM.
Turning to `Cc1ncc2c(N)nc3ccc(C(=O)N(Cc4ccc(C(F)(F)F)cn4)N4CCCC4=O)cc3n12` [Fc-1, 4-amino-1-methyl-N-(2-oxopyrrolidin-1-yl)-N-[[5-(trifluoromethyl)-2-pyridyl]methyl]imid-azo[1,5-a]quinoxaline-8-carboxamide], the CC50 in assay [1] lay in the range of 100 to 1000 nM. In assay [2], the EC50 selectivity is reported as 171 and the EC50 was in the range of 1 to 5 nM.
In the case of `CC(=O)N(C)N(Cc1ccc(OC(F)F)cc1F)C(=O)c1ccc2nc(N)c3cnc(C)n3c2c1` [Fc-2, N′-acetyl-4-amino-N-(4-(difluoromethoxy)-2-fluorobenzyl)-N′,1-dimethylimidazo[1,5-a]quinoxaline-8-carbohydrazide], the half-maximal cytotoxic concentration (CC50) in assay [1] was in the range of 100 to 1000 nM. Moreover, in assay [2], the EC50 selectivity is 431 and the EC50 fell in the range of 1 to 5 nM.
Taken in the same sequence, the figures for `Nc1nc2ccc(C(=O)N(Cc3ccc(C(F)(F)F)cn3)N3CCCC3=O)cc2n2cncc12` [Fd-1, 4-amino-N-(2-oxopyrrolidin-1-yl)-N-((5-(trifluoromethyl)pyridin-2-yl)methyl)imidazo[1,5-a]quinoxaline-8-carboxamide] were 100 to 1000 nM, 54 and 1 to 5 nM.
Regarding `Nc1nc2ccc(C(=O)N(Cc3ccc(C(F)(F)F)cn3)C34CC(C3)C4)cc2n2cncc12` [Fe-1, 4-amino-N-(bicyclo[1.1.1]pentan-1-yl)-N-((5-(trifluoromethyl)pyridin-2-yl)methyl)imidazo[1,5-a]quinoxaline-8-carboxamide], the CC50 in assay [1] is < 100 nM. In assay [2], this compound showed an EC50 selectivity of 62 and an EC50 of 1 to 5 nM.
With `C[C@H](c1ncccn1)N(Cc1ccc(C(F)(F)F)cn1)C(=O)c1ccc2nc(N)c3cncn3c2c1` [Fe-2, (R)-4-amino-N-(1-(pyrimidin-2-yl)ethyl)-N-((5-(trifluoromethyl)pyridin-2-yl)methyl)imidazo[1,5-a]quinoxaline-8-carboxamide], the CC50 in assay [1] was < 100 nM. Further, in assay [2], the EC50 selectivity was found to be 5 and the EC50 is ≤ 1 nM.
Taken in the same sequence, the figures for `Nc1nc2cc(F)c(C(=O)N(Cc3ccc(C(F)(F)F)cn3)C34CC(C3)C4)cc2n2cncc12` [Ff-1, 4-amino-N-(bicyclo[1.1.1]pentan-1-yl)-7-fluoro-N-((5-(trifluoromethyl)pyridin-2-yl)methyl)imidazo[1,5-a]quinoxaline-8-carboxamide] were < 100 nM, 37 and ≤ 1 nM.
Regarding `Nc1nc2cc(F)c(C(=O)N3CCC(c4ccc(C(F)(F)F)cc4F)C3)cc2n2cncc12` (stereo not drawn) [Ff-4, (4-amino-7-fluoroimidazo[1,5-a]quinoxalin-8-yl)(3-(2-fluoro-4-(trifluoromethyl)phenyl)pyrrolidin-1-yl)methanone], the CC50 in assay [1] was in the range of 100 to 1000 nM. Also, in assay [2], the EC50 selectivity is listed as 2956 and the EC50 is > 5 nM.
For `CN(Cc1cccc2ccoc12)C(=O)c1ccc2nc(N)c3cncn3c2c1` [Ff-5, 4-amino-N-(benzofuran-7-ylmethyl)-N-methylimidazo[1,5-a]quinoxaline-8-carboxamide], the 50% cytotoxic concentration (CC50) in assay [1] was > 1000 nM. Moreover, in assay [2], the EC50 selectivity came to 334 and the EC50 was > 5 nM.
For `Nc1nc2cc(F)c(C(=O)N(Cc3ccc(Cl)cc3F)C34CC(C3)C4)cc2n2cncc12` [Ff-6, 4-amino-N-(bicyclo[1.1.1]pentan-1-yl)-N-(4-chloro-2-fluorobenzyl)-7-fluoroimidazo[1,5-a]quinoxaline-8-carboxamide], in that order: 100 to 1000 nM, 71 and > 5 nM.
